pEC50: −log10 of the molar value.
Legend:
HCV genotype 1b replicon = test: HCV Replicon Assay; type: cell-based; settings: Hepatitis C virus, 72 h, read-out: HCV Replicon EC50
Procedure, shortened: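 Zluc Huh-7 cells with HCV genotype 1b replicon and luciferase reporter treated with 5-fold dilutions (100 μM to 0.0000512 μM final) in duplicate, or at 1 and 10 μM. Luminescence read with ONE-glo; EC50 from dose-response fits, or % inhibition at the fixed concentrations.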

[1] = cytotoxicity evaluation (CellTiter-Blue Cell Viability Assay); settings: human
genotype 1b HCV replicon = test: genotype 1b HCV replicon-bearing Huh-7 cells (Table 5); type: cell-based
From the text: In vivo Z4 and Z2 appear to be effectively liver-targeted with a high liver:plasma ratio of drug metabolites. Both prodrugs are readily converted to the triphosphate (TP) metabolite in the liver of mice and monkey producing more TP than GS-7977. […] The in vitro antiviral inactivity of Z4 and Z2 is thought to reflect an inability of Huh-7 replicon cells to metabolize the prodrug moiety.

cathepsin A (CatA) = biological target: T1, cathepsin A (CatA) (Homo sapiens, UniProt P10619); test: CatA hydrolysis assay; type: in vitro ADME; settings: 100 μM compound, 37° C., 18 h
T1 construct: purchased R & D Systems (Minneapolis, Minn.)
T1 sequence (P10619 29-326 limits assumed): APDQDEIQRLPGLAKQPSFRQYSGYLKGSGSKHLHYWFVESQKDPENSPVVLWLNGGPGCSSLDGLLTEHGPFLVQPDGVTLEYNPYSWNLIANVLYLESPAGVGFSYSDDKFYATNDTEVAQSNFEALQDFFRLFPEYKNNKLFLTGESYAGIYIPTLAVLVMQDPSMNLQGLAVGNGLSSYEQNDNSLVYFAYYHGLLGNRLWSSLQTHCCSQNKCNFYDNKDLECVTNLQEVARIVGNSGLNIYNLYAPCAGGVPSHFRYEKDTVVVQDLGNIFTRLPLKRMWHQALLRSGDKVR
T1 sequence (P10619 327-480 limits assumed): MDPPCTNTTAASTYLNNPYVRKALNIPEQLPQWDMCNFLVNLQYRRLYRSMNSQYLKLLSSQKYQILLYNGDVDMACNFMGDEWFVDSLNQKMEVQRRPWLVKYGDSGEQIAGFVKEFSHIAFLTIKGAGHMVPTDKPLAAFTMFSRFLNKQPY
Protocol: CatA, cathepsin L (CatL) and CES1 were purchased from R & D Systems (Minneapolis, Minn.). Prior to the enzymatic hydrolysis reactions, CatA was activated according to the manufacturer's instruction. Briefly, CatA (0.05 μg/μL) was incubated with CatL (0.005 μg/μL) for 30 min at 37° C. in 25 mM MES pH 6.0 containing 5 mM DTT. The reaction was stopped by addition of the CatL specific inhibitor E64 (10 μM).
The CatA assay was performed at 37° C. The reaction mixture contained 25 mM MES buffer pH 6.0, 100 mM NaCl, 4 mM DTT and 100 μM of the compound. The reaction was started by addition of the activated CatA enzyme to a final concentration of 0.005 μg/μL. One hundred-μL aliquots were taken after 0.5 min, 3 hrs and 18 hrs of incubation. Reactions were stopped by mixing the sample with an equal volume of ice-cold methanol, and were loaded on a HPLC for analysis.
(§1) Samples were analyzed by HPLC using 5μ C-18, 4.6×250 mm Phenomenex® Columbus column (Phenomenex USA, CA). The mobile phase consisted of buffer A (25 mM potassium phosphate with 5 mM tetrabutylammonium dihydrogen phosphate pH 6.3) and buffer B (100% methanol).

[2] = biological target: T2, carboxylesterase 1 (CES1) (Homo sapiens, UniProt P23141); test: CES1 hydrolysis assay; type: in vitro ADME; settings: for CES1 hydrolysis: 100 μM compound, 37° C.
T2 construct: purchased R & D Systems (Minneapolis, Minn.)
T2 sequence (P23141 18-567): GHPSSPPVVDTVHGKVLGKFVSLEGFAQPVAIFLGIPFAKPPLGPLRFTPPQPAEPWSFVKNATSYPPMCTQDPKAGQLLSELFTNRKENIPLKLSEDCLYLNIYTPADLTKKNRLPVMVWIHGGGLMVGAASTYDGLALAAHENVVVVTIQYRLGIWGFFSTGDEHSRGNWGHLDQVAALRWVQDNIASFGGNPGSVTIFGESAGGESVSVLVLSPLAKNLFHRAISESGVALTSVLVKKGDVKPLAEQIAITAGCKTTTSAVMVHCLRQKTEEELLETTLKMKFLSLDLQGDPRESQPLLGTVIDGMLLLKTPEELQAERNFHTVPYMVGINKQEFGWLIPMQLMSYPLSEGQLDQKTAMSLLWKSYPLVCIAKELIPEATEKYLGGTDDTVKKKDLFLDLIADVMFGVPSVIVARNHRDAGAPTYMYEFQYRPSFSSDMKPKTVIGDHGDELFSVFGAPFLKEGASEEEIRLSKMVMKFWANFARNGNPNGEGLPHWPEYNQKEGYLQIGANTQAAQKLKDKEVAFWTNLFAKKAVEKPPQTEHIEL
Protocol: CES1 assay was performed at 37° C. in the reaction mixture containing 50 mM Tris/HCl buffer pH 7.5 and 100 μM of the compound. Reaction was started by addition of the CES1 to the final concentration 0.01 μg/mL. 100 μL aliquots were taken after 0.5 min, 3 hrs and 21 hrs of the incubation and the reaction was stopped by mixing with 100 μl of the ice-cold methanol prior to HPLC analysis.
as §1

Huh-7 cells = test: Release of active metabolite in Huh-7 cells; type: in vitro ADME, human; settings: Huh-7 cells, AUC0-72
Protocol: Huh-7 cells were plated in 1 mL culture medium (DMEM, containing glucose, L-glutamine and sodium pyruvate, 10% FBS, 100 IU/mL penicillin, 100 μg/mL streptomycin, 2 mM GlutaMAX, 1% MEM non-essential amino acids) at the concentration 0.8, 0.4 and 0.2 million cells per well on 6 well plates for 24, 48 and 72 hr treatment, respectively. Plated cells were incubated overnight at 37° C. in an incubator.
The following morning compounds was diluted to 20 μM from a stock solution in DMSO in fresh culture medium pre-warmed to 37° C. and 1 mL of the solution/well was added to cells. A final medium volume per well was 2.0 mL, Compound concentration in well was 10 μM and final DMSO concentration was 0.1%.
After 24, 48 or 72 hr, the medium was carefully removed and cell monolayers were washed twice with 2 mL ice-cold PBS per well. Following the last wash, all PBS was carefully removed and 1.0 mL of extraction solution (ice-cold 70% methanol) added. The plate was tightly covered with Parafilm, plastic plate cover and Parafilm again and an intracellular content was extracted at −20° C. for 24 hr.
After 24 hr extracts were transferred into polypropylene microfuge tubes and dried on a refrigerated centrivap concentrator. Dry residues were reconstituted in 250 μL of HPLC-grade water and centrifuged at 16,000×g for 10 min. Aliquots (100 μL each) of the supernatants were transferred into a 96 well plate and internal standard (4 ng/mL final concentration) was added as the internal standard (IS) for LC-MS/MS analysis.

Liver TP (Table 5) = type: in vivo

Row | Compound | pEC50 (HCV genotype 1b replicon) | CC50 [1] | pEC50 (genotype 1b HCV replicon) | CatA hydrolysis (cathepsin A (CatA)) | hydrolysis by CES1 (in words) [2] | CES1 hydrolysis ([2]; 3 h) | CES1 hydrolysis ([2]; 21 h) | Huh-7 AUC0-72 (Huh-7 cells) | Liver TP (Liver TP (Table 5))
1 | CCOc1nc(N)nc2c1ncn2[C@@H]1O[C@@H]2COP(=O)(Oc3ccc(C[C@H](NC(=O)OC)C(=O)OC(C)C)cc3)O[C@H]2[C@@]1(C)F (stereo partly drawn) [Compound 13] | > 6.60 | > 50000 nM |  |  |  |  |  |  | 
2 | CC(C)OC(=O)[C@H](C)N[P@@](=O)(OC[C@H]1O[C@@H](n2ccc(=O)[nH]c2=O)[C@](C)(F)[C@@H]1O)Oc1ccccc1 [PSI-7976] |  |  | 5.68 | 10% @ 18 h | preferentially hydrolyzed | 56%/3 h; | 94%/21 h | 6527 pmol * hr/10^6cells | 310 pmol·h/g
